From patent publication US20120190004A1, “METHODS AND COMPOSITIONS FOR THE CRYOPRESERVATION OF DUCKWEED” (Biolex Therapeutics, Inc., priority 2009, published 2012)

Test system: L. minor
Experiment: Cryopreservation success rate after dormancy induction in sugar-supplemented medium
Type: in vivo, Lemna minor

## OC[C@H]1O[C@@](CO)(O[C@H]2O[C@H](CO)[C@@H](O)[C@H](O)[C@H]2O)[C@@H](O)[C@@H]1O [Sucrose, sucrose]
Dormancy induction 7-Day, 4° C. with no light
  Cryopreservation success rate: 0% (0/28)
Dormancy induction 7-Day, 9-10° C. with no light
  Cryopreservation success rate: 14.82% (4/27)
Dormancy induction 7-Day, fluctuating temperature and light
  Cryopreservation success rate: 33.3% (9/27)
Dormancy induction 7-Day, fluctuating temperature with no light
  Cryopreservation success rate: 65.39% (17/26)
Dormancy induction 14-Day, 4° C. with no light
  Cryopreservation success rate: 0% (0/22)
Dormancy induction 14-Day, 9-10° C. with no light
  Cryopreservation success rate: 73.08% (19/26)
Dormancy induction 14-Day, fluctuating temperature and light
  Cryopreservation success rate: 96% (24/25)
Dormancy induction 14-Day, fluctuating temperature with no light
  Cryopreservation success rate: 100% (24/24)
Dormancy induction 21-Day, 4° C. with no light
  Cryopreservation success rate: 4.17% (1/24)
Dormancy induction 21-Day, 9-10° C. with no light
  Cryopreservation success rate: 91.67% (22/24)
Dormancy induction 21-Day, fluctuating temperature with no light
  Cryopreservation success rate: 86.96% (20/23)
Dormancy induction 28-Day, 4° C. with no light
  Cryopreservation success rate: 0% (0/20)
Dormancy induction 28-Day, 9-10° C. with no light
  Cryopreservation success rate: 97.37% (37/38)
Dormancy induction 28-Day, fluctuating temperature and light
  Cryopreservation success rate: 94.29% (33/35)
Dormancy induction 28-Day, fluctuating temperature with no light
  Cryopreservation success rate: 100% (30/30)
First set of experiments, single sugars 90 mg/ml unless the label says 20 mg/ml, six sugar combo 15 mg/ml each, listed as 20 mg/ml Sucrose
  Cryopreservation success rate: 42.3% (11/26)
Second set of experiments, single sugars 90 mg/ml unless the label says 20 mg/ml, six sugar combo 15 mg/ml each, listed as 20 mg/ml Sucrose
  Cryopreservation success rate: 43.8% (7/16)
Sugars at two concentrations: 90 mg/ml (1X) and 270 mg/ml (3X), listed as Sucrose 1X
  Cryopreservation success rate: 88.9% (16/18)
Sugars at two concentrations: 90 mg/ml (1X) and 270 mg/ml (3X), listed as Sucrose 3X
  Cryopreservation success rate: 0% (0/11)
Various concentrations of six sugar combination: total sugar 90 (1X), 216 (2.4X), 342 mg/ml (3.8X), or 20 mg/ml sucrose
  Cryopreservation success rate: 92.9% (26/28)
